The record followed here is patent publication US20240246946A1, “MODULATORS OF TREX1” (Constellation Pharmaceuticals, Inc., priority 2021, published 2024).

Structures are written as SMILES. Where two headings read alike, the source gives them in different places.

One assay has as its target T1, full length human TREX1 (Homo sapiens, UniProt Q9NSU2).
T1 construct: N-terminally His-Tev tagged full length human TREX1; made in house; host or cells: E. coli
T1 sequence (Q9NSU2 1-314): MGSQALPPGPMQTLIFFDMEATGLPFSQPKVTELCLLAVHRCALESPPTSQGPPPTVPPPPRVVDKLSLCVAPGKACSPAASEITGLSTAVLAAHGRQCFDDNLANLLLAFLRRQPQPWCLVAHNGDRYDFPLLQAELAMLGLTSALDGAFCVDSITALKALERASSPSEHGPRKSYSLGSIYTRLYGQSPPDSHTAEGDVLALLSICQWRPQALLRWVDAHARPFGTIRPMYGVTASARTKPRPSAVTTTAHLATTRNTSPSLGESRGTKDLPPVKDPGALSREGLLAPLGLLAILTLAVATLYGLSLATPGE
Kind of assay: hTREX1 Biochemical Assay (fluorescence, dsDNA substrate degradation). The method in brief: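 Fluorescence rises as enzyme degrades a quenched TEX615-labelled dsDNA substrate (60 nM) in 50 mM Tris, 150 mM NaCl, 5 mM MgCl2, pH 7.4. Full-length His-Tev-tagged human TREX1, 4 pM, sits with compound 4 hours at 25° C before substrate; reaction 18 hours, stopped with EDTA.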

Another assay addresses T2, full length mouse TREX1 (Mus musculus, UniProt Q91XB0).
T2 construct: N-terminally His-Tev tagged full length mouse TREX1; made in house; host or cells: E. coli
T2 sequence (Q91XB0 1-314): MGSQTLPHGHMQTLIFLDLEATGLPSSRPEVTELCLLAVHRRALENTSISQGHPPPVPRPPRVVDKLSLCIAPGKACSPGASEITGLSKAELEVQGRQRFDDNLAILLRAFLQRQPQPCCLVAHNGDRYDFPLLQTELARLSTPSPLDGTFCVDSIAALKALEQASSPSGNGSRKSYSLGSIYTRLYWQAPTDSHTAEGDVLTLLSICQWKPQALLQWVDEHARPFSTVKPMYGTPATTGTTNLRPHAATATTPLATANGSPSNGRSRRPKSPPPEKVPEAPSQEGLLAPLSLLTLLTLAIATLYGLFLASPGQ
Kind of assay: mTREX1 Biochemical Assay (fluorescence, dsDNA substrate degradation). The method in brief:
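Reaction run 18 h at 25° C. with 60 nM TEX615/quencher-labelled dsDNA and 6 pM mouse TREX1 in Tris buffer (pH 7.4, 5 mM MgCl2, 1.0% DMSO), enzyme having sat 4 h with compound across 10 concentrations. EDTA quench; substrate degradation measured as fluorescence increase.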

Setting [1] is: biochemical, read-out: hTREX1 IC50.
[2] abbreviates: biochemical, read-out: mTREX1 IC50.

For the compound `Cc1cc(C(c2ccccc2C#N)C(C)c2nc(C(=O)Nc3cnoc3)c(O)c(=O)n2C)n(C)n1` (single isomer, unassigned) [Example 63 D2E1], the IC50 on full length human TREX1 (setting [1]) and on full length mouse TREX1 (setting [2]) was above 10 nM in each case.
Turning to `CC(c1nc(C(=O)Nc2cnoc2)c(O)c(=O)n1C)C(c1cnn(CCCN(C)C)c1)c1ccccc1C#N` (single isomer, unassigned) [Example 34 D2E2], the IC50 on full length human TREX1 (setting [1]) and on full length mouse TREX1 (setting [2]) was above 10 nM in each case.
Consider `Cc1nn(C)c(C)c1C(c1ccccc1C#N)C(C)c1nc(C(=O)Nc2cnoc2)c(O)c(=O)n1C` (single isomer, unassigned) [Example 78 D2E2], for which the IC50 at full length human TREX1 (setting [1]) and at full length mouse TREX1 (setting [2]) was above 10 nM throughout.
As to `COCCn1cc(C(c2ccccc2C#N)C(C)c2nc(C(=O)Nc3cnoc3)c(O)c(=O)n2C)c(C)n1` (single isomer, unassigned) [Example 71 D2E1], the IC50 at full length human TREX1 (setting [1]) and at full length mouse TREX1 (setting [2]) was above 10 nM each time.
As to `Cc1nn(C)cc1C(c1cc(F)ccc1Cl)C(C)c1nc(C(=O)Nc2cnoc2)c(O)c(=O)n1C` (single isomer, unassigned) [Example 62 D1E1], the IC50 on full length human TREX1 (setting [1]) and on full length mouse TREX1 (setting [2]) was above 10 nM throughout.
In the case of `Cc1ccnn1C(c1ccccc1Cl)C(C)c1nc(C(=O)Nc2cnoc2)c(O)c(=O)n1C` (single isomer, unassigned) [Example 54 D1E2], the IC50 against full length human TREX1 (hTREX1 IC50, biochemical) is above 10 nM; against full length mouse TREX1 (mTREX1 IC50, biochemical), above 10 nM.
In the case of `CC(c1nc(C(=O)Nc2cnoc2)c(O)c(=O)n1C)C(c1cnn(C)c1)c1cc(F)ccc1Cl` (single isomer, unassigned) [Example 61 D2E2], the concentration for half-maximal inhibition (IC50) on full length human TREX1 (setting [1]) and on full length mouse TREX1 (setting [2]) was above 10 nM each time.
With `CC(c1nc(C(=O)Nc2cnoc2)c(O)c(=O)n1C)C(c1cnn(C)c1)c1cccnc1C#N` (single isomer, unassigned) [Example 7 D1E2], the IC50 at full length human TREX1 (setting [1]) and on full length mouse TREX1 (setting [2]) was above 10 nM in each case.
Turning to `CC(c1nc(C(=O)Nc2cnoc2)c(O)c(=O)n1C)C(c1ncn(C)n1)c1ccccc1C#N` (single isomer, unassigned) [Example 51 D1E1], the IC50 on full length human TREX1 (setting [1]) and on full length mouse TREX1 (setting [2]) was above 10 nM throughout.
On to `CCn1cc(C(c2cc(F)c(F)cc2Cl)C(C)c2nc(C(=O)Nc3cnoc3)c(O)c(=O)n2C)cn1` (single isomer, unassigned) [Example 72 D1E2], for which the IC50 on full length human TREX1 (setting [1]) and on full length mouse TREX1 (setting [2]) was above 10 nM in each case.
With `CC(c1nc(C(=O)Nc2cnoc2)c(O)c(=O)n1C)C(c1cnn(C)c1)c1cc(F)ccc1Cl` (single isomer, unassigned) [Example 61 D2E1], the IC50 on full length human TREX1 (setting [1]) and at full length mouse TREX1 (setting [2]) was above 10 nM each time.
For the compound `COCCn1cc(C(c2ccccc2C#N)C(C)c2nc(C(=O)Nc3cnoc3)c(O)c(=O)n2C)cn1` (single isomer, unassigned) [Example 9 D1E2], the half-inhibitory concentration (IC50) at full length human TREX1 (setting [1]) and at full length mouse TREX1 (setting [2]) was above 10 nM in each case.
Take `Cc1nn(C)cc1C(c1cc(F)ccc1C#N)C(C)c1nc(C(=O)Nc2cnoc2)c(O)c(=O)n1C` (single isomer, unassigned) [Example 57 D2E2]: the IC50 at full length human TREX1 (setting [1]) and on full length mouse TREX1 (setting [2]) was above 10 nM throughout.
As to `COCCCn1cc(C(c2ccccc2C#N)C(C)c2nc(C(=O)Nc3cnoc3)c(O)c(=O)n2C)cn1` (single isomer, unassigned) [Example 24 D2E2], the IC50 on full length human TREX1 (setting [1]) and at full length mouse TREX1 (setting [2]) was above 10 nM each time.
With `Cc1c(C(c2ccccc2C#N)C(C)c2nc(C(=O)Nc3cnoc3)c(O)c(=O)n2C)cnn1C` (single isomer, unassigned) [Example 4 D1E2], the IC50 at full length human TREX1 (setting [1]) and at full length mouse TREX1 (setting [2]) was above 10 nM in each case.
Consider `CCn1cc(C(c2ccccc2C#N)C(C)c2nc(C(=O)Nc3cnoc3)c(O)c(=O)n2C)c(C)n1` (single isomer, unassigned) [Example 70 D1E2], for which the IC50 at full length human TREX1 (setting [1]) and on full length mouse TREX1 (setting [2]) was above 10 nM throughout.
For `CC(c1nc(C(=O)Nc2cnoc2)c(O)c(=O)n1C)C(c1cnn(CCN(C)C)c1)c1ccccc1C#N` (single isomer, unassigned) [Example 33 D2E1], the IC50 at full length human TREX1 (setting [1]) and at full length mouse TREX1 (setting [2]) was above 10 nM each time.
Take `CC(c1nc(C(=O)Nc2cnoc2)c(O)c(=O)n1C)C(c1cnn(CCN2CCNCC2)c1)c1ccccc1C#N` (single isomer, unassigned) [Example 31 D2E1]: the IC50 on full length human TREX1 (setting [1]) and on full length mouse TREX1 (setting [2]) was above 10 nM throughout.
Consider `Cc1c(C(c2ccccc2C#N)C(C)c2nc(C(=O)Nc3cnoc3)c(O)c(=O)n2C)cnn1C` (single isomer, unassigned) [Example 4 D2E1], for which the IC50 at full length human TREX1 (setting [1]) and at full length mouse TREX1 (setting [2]) was above 10 nM throughout.
With `CC(c1nc(C(=O)Nc2cnoc2)c(O)c(=O)n1C)C(c1ncn(C)n1)c1ccccc1C#N` (single isomer, unassigned) [Example 51 D2E1], the IC50 on full length human TREX1 (setting [1]) and on full length mouse TREX1 (setting [2]) was above 10 nM each time.
For `Cn1cc(C(c2ccccc2C#N)C(c2nc(C(=O)Nc3cnoc3)c(O)c(=O)n2C)C(F)(F)F)cn1` (single isomer, unassigned) [Example 40 D2E1], the IC50 on full length human TREX1 (setting [1]) and at full length mouse TREX1 (setting [2]) was above 10 nM throughout.
Regarding `CC(c1nc(C(=O)Nc2cnoc2)c(O)c(=O)n1C)C(c1cnn(C)c1)c1cc(F)ccc1C#N` (single isomer, unassigned) [Example 14 D2E2], the 50% inhibitory concentration (IC50) on full length human TREX1 (setting [1]) and on full length mouse TREX1 (setting [2]) was above 10 nM throughout.
Turning to `COCCn1cc(C(c2cc(F)c(F)cc2Cl)C(C)c2nc(C(=O)Nc3cnoc3)c(O)c(=O)n2C)cn1` (single isomer, unassigned) [Example 73 D1E2], the 50% inhibitory concentration (IC50) at full length human TREX1 (setting [1]) and at full length mouse TREX1 (setting [2]) was above 10 nM in each case.
Take `COCCCn1cc(C(c2ccccc2C#N)C(C)c2nc(C(=O)Nc3cnoc3)c(O)c(=O)n2C)cn1` (single isomer, unassigned) [Example 24 D2E1]: the IC50 on full length human TREX1 (setting [1]) and at full length mouse TREX1 (setting [2]) was above 10 nM in each case.
In the case of `CC(c1nc(C(=O)Nc2cnoc2)c(O)c(=O)n1C)C(c1cnn(C)c1)c1cc(F)c(F)cc1Cl` (single isomer, unassigned) [Example 28 D2E2], the IC50 on full length human TREX1 (setting [1]) and at full length mouse TREX1 (setting [2]) was above 10 nM in each case.
For `CC(c1nc(C(=O)Nc2cnoc2)c(O)c(=O)n1C)C(c1cnn(C)c1)c1cc(F)c(F)cc1C#N` (single isomer, unassigned) [Example 25 D2E1], the IC50 at full length human TREX1 (setting [1]) and at full length mouse TREX1 (setting [2]) was above 10 nM in each case.
On to `Cc1ncc(C(c2ccccc2Cl)C(C)c2nc(C(=O)Nc3cnoc3)c(O)c(=O)n2C)cn1` (single isomer, unassigned) [Example 44 D2E1], for which the half-inhibitory concentration (IC50) on full length human TREX1 (setting [1]) and at full length mouse TREX1 (setting [2]) was above 10 nM throughout.
Take `CC(c1nc(C(=O)Nc2cnoc2)c(O)c(=O)n1C)C(c1cnn(C)c1)c1ccncc1C#N` (single isomer, unassigned) [Example 8 D1E1]: the IC50 at full length human TREX1 (setting [1]) and at full length mouse TREX1 (setting [2]) was above 10 nM throughout.
With `Cc1nn(C)cc1C(c1ccccc1C#N)C(C)c1nc(C(=O)Nc2cnoc2)c(O)c(=O)n1C` (single isomer, unassigned) [Example 3 D2E1], the IC50 on full length human TREX1 (setting [1]) and at full length mouse TREX1 (setting [2]) was above 10 nM each time.
As to `COCCn1cc(C(c2cc(F)ccc2C#N)C(C)c2nc(C(=O)Nc3cnoc3)c(O)c(=O)n2C)cn1` (single isomer, unassigned) [Example 18 D2E1], the IC50 on full length human TREX1 (setting [1]) and on full length mouse TREX1 (setting [2]) was above 10 nM in each case.
As for `CC(c1nc(C(=O)Nc2cnoc2)c(O)c(=O)n1C)C(c1cnn(C)c1)c1ccc(C(F)(F)F)cc1C#N` (single isomer, unassigned) [Example 30 D1E2], the IC50 on full length human TREX1 (setting [1]) and on full length mouse TREX1 (setting [2]) was above 10 nM each time.
On to `Cc1ccnn1C(c1ccccc1Cl)C(C)c1nc(C(=O)Nc2cnoc2)c(O)c(=O)n1C` (single isomer, unassigned) [Example 54 D1E1], for which the IC50 lay in the range of 1 to 10 nM on full length human TREX1 (hTREX1 IC50, biochemical) and 1 to 10 nM against full length mouse TREX1 (mTREX1 IC50, biochemical).
In the case of `CCn1ncc(C(c2ccc(F)cc2C#N)C(C)c2nc(C(=O)Nc3cnoc3)c(O)c(=O)n2C)c1C` (single isomer, unassigned) [Example 65 D2E2], the figures for the IC50 on full length human TREX1 (setting [1]) and at full length mouse TREX1 (setting [2]) were below 1 nM and above 10 nM, respectively.
Taken in the same sequence, the figures for `CC(c1nc(C(=O)Nc2cnoc2)c(O)c(=O)n1C)C(c1cnn(C)c1)c1ccc(C(F)(F)F)cc1C#N` (single isomer, unassigned) [Example 30 D2E2] were above 10 nM and above 10 nM.
Taken in the same sequence, the figures for `Cc1cn(C)nc1C(c1ccccc1C#N)C(C)c1nc(C(=O)Nc2cnoc2)c(O)c(=O)n1C` (single isomer, unassigned) [Example 64 D1E1] were below 1 nM and above 10 nM.
`Cc1nn(C)cc1C(c1cc(F)ccc1Cl)C(C)c1nc(C(=O)Nc2cnoc2)c(O)c(=O)n1C` (single isomer, unassigned) [Example 62 D2E1]: the IC50 at full length human TREX1 (setting [1]) and on full length mouse TREX1 (setting [2]) was above 10 nM throughout.

The IC50 is the concentration needed to halve the response being measured.
